The source of these data is patent publication US20250026748A1, “N-(5-SUBSTITUTED-[(1,3,4-THIADIAZOLYL) OR (THIAZOLYL)])(SUBSTITUTED)CARBOXAMIDE COMPOUNDS AND USE THEREOF FOR INHIBITING HUMAN POLYMERASE THETA” (Repare Therapeutics Inc., priority 2021, published 2025).

Data set [1] can be described thus: Liver microsomal stability assay. The conditions noted are these: pH 7.4; human liver microsomes 0.5 mg/mL, 1 μM compound, NADPH 1 mM, 37 °C. The data set is classed as in vitro ADME. How it is done: Liver microsomes were thawed on ice prior to use. The incubation mixtures were prepared in 96-well plates and contained test compound or control (1 μM), liver microsomes (0.5 mg of microsomal protein/mL), MgCl2 (5 mM), phosphate buffer (100 mM, pH 7.4), 0.01% DMSO and 1% acetonitrile. A T=0 aliquot was withdrawn after 10 min pre-incubation at 37° C. on a shaker. Reactions were initiated by the addition of NADPH (final concentration of 1 mM) and the plate was kept on a shaker at 37° C., further samples were withdrawn at 5, 15, 30, and 60 minutes. At each timepoint, the reactions were immediately terminated by adding of ice-cold acetonitrile containing internal standard to the withdrawn sample. The extracted samples were centrifuged for 10 minutes at 3200 rpm to pellet the precipitated microsomal protein, and the supernatant was combined 1:1 with water and analyzed by LC-MS/MS. Using the T=0 peak area ratio as 100%, the percentage of parent compound remaining was calculated. For each compound, the In percentage remaining versus incubation time was plotted and the slope of this linear regression (−k) was converted to an in vitro T1/2 value and CLint using the equations below.
Background: Microsomes from liver hold many membrane-bound enzymes, among them those of drug oxidation.

Data set [2] deals with T1, CYP3A4 (Homo sapiens (Human), UniProt P08684). Put plainly: Reversible CYP inhibition in human liver microsomes (midazolam probe). The conditions noted are these: human liver microsomes 0.1 mg/mL, 2.5 μM midazolam, 5 min, test compound up to 30 μM. The format is in vitro ADME. The method, then:
A seven-point semi-log dilution of each test compound (up to […]) or positive control inhibitors for CYP2C9 (up to 1000 nM sulphenazole), CYP2D6 (up to 500 nM quinidine) and CYP3A4 (up to 250 nM ketoconazole) were dissolved in DMSO and added to the incubation plate using a Tecan 300 (normalized for 0.3% DMSO content). Final reaction conditions were: human liver microsomes (0.1 mg/mL), potassium phosphate buffer 100 mM pH 7.4, 1 mM magnesium chloride, 5 NM diclofenac, 5 NM dextromethorphan and 2.5 μM midazolam. After a pre-incubation at 37 00. The reaction was started with the addition of NADPH solution at the final concentration of 1 mM and carried out at 37 00 for 5 minutes. The reaction was stopped by the addition of 1 volume of cold acetonitrile with internal standard (labetalol) to the incubation plate. The incubation plate was centrifuged at 3000 rpm for 10 minutes to precipitate proteins, and the supernatant was analyzed by LC-MS/MS. Metabolite area ratio (4-OH-diclofenac, dextrorphan and 1-OH-midazolam) versus ISTD area ratio was used as the quantitative signal. Data were analyzed using the plot log of concentration (×-axis) versus the percentage of inhibition (y axis) and the IC50, Hill Slope and R^2 were determined.

Data set [3] has as its target T1, CYP3A4. Put plainly: TDI method: time-dependent CYP inhibition, IC50 shift -NADPH/+NADPH. The data set is classed as in vitro ADME. The conditions noted are these: IC50 (-NADPH) divided by IC50 (+NADPH), 30 min pre-incubation, human liver microsomes. The method, then: Test compound or positive control inhibitors (CYP2C9: Tienilic acid; CYP2D6: paroxetine; CYP3A4: mifepristone) were dissolved in DMSO and a semi-log dilution (up to 50.0 μM) was prepared to 2 incubation plates and normalized for a final DMSO content of 0.5%. Human liver microsomes were diluted at 1 mg/mL with 100 mM potassium phosphate buffer pH 7.4 (1 mM MgCl2) and added to both incubation plates. After pre-incubation at 37° C., the reaction was started with the addition of NADPH (+NADPH condition) or with water (-NADPH condition). Plates were incubated for 30 min and 8 μL were transferred to a second incubation plate containing 72 μL of 1 mM NADPH, 20 μM diclofenac (CYP2C9), 20 μM dextromethorphan (CYP2D6) and 10 μM midazolam (CYP3A4) in 100 mM potassium phosphate buffer pH 7.4 (1 mM MgCl2). Plates were incubated for 10 min and the reaction was stopped by the addition of cold acetonitrile containing internal standard (1:1 v/v). Incubation plates were centrifuged at 3000 rpm for 10 minutes to precipitate protein, and the supernatant was used for LC-MS/MS analysis. Metabolite area ratio (4-OH-diclofenac, dextrorphan and 1-OH-midazolam) versus internal standard area ratio was used as the quantitative signal. Data were analyzed using the plot log of concentration (x axis) versus the percentage of inhibition (y axis) and IC50, Hill Slope and R^2 were determined. The IC50 shift was then calculated by dividing the IC50-NADPH condition by the IC50 obtained in the +NADPH condition.

In data set [4] the target is PXR nuclear receptor (Homo sapiens (Human), UniProt O75469). Put plainly: PXR method: luciferase reporter gene activation in transfected tumor cells. The conditions noted are these: test compound 0.03-10 μM; for fold induction at 24 h: compared with vehicle-treated cells, read-out: PXR activation (Max fold induction); for PXR activation (% Max activity): percentage of the response given by Rifampicin at 10 μM, 24 h. The format is cell-based. The method, then:
An expression vector harboring a full-length PXR nuclear receptor plus the appropriate enhancers and promoters linked to the luciferase reporter gene were integrated into the tumor cells. Tumor cells transfected with the species-specific nuclear receptor and the corresponding response elements were seeded in a 96-well plate. Twenty-four hours after seeding, the cells were treated with six distinct concentrations (0.03-10 μM) of the test compound. The cells were then returned to the incubator for an additional 24 h. After this incubation period, the number of viable cells/well were determined using Promega's Cell Titer Fluor cytotoxicity assay. At the end of the assay, Promega's ONE-Glo was added to assess the receptor activation by monitoring reporter gene activity, and by comparing the results to vehicle-treated cells. Activation data were normalized to the number of viable cells/well. Results are expressed as a percentage of the response given by Rifampicin, the positive control, at a 10 μM dose.
(A reporter such as luciferase makes a cellular process visible.)

Data set [5] concerns the target PolQ ATPase enzyme (1-894) (Homo sapiens (Human), UniProt O75417). Put plainly: Polθ ATPase enzymatic assay (0.5 nM enzyme concentration), ADP-Glo. The conditions noted are these: average IC50; 0.5 nM PolQ ATPase enzyme (1-894). The format is biochemical. The essentials: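 Enzyme (0.5 nM) pre-incubated 15 min at rt with 10-point inhibitor series in 50 mM Tris pH 7.5, 10% glycerol, 5 mM DTT, 10 mM MgCl2, 0.1 mg/ml BSA; reaction started with 20 nM fork DNA and 100 μM ATP, run 180 min at rt. ADP-Glo luminescence; IC50 from 4-parameter variable-slope fit.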
For orientation: ADP-Glo first removes unused ATP, then detects ADP through luciferase.

Bounds are passed on as bounds.

T1 sequence (P08684 whole entry): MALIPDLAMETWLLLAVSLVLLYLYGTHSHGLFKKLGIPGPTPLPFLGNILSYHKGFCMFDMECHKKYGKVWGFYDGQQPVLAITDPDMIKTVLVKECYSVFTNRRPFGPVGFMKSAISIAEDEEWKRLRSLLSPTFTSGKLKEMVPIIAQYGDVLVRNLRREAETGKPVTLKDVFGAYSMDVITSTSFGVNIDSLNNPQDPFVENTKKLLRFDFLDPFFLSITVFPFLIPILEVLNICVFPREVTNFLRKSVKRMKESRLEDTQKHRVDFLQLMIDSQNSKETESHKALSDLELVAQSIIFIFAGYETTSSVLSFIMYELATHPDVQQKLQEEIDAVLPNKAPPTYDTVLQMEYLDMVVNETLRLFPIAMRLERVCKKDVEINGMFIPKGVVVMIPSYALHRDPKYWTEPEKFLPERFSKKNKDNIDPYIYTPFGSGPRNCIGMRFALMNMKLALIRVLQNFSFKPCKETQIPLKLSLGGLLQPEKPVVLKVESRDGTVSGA
Sequence of PXR nuclear receptor (O75469 whole entry): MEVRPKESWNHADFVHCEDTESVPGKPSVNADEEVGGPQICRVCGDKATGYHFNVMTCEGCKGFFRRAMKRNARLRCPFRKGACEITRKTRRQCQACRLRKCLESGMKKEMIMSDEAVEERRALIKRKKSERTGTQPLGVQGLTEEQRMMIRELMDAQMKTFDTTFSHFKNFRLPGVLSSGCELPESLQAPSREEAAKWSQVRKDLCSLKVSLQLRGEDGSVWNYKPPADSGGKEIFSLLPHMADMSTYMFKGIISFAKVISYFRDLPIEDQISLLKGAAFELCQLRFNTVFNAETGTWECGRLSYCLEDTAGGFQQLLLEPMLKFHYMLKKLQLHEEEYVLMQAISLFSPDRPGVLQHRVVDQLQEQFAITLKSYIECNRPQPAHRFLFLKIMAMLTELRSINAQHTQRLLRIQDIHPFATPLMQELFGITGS
Sequence of PolQ ATPase enzyme (1-894) (O75417 1-894): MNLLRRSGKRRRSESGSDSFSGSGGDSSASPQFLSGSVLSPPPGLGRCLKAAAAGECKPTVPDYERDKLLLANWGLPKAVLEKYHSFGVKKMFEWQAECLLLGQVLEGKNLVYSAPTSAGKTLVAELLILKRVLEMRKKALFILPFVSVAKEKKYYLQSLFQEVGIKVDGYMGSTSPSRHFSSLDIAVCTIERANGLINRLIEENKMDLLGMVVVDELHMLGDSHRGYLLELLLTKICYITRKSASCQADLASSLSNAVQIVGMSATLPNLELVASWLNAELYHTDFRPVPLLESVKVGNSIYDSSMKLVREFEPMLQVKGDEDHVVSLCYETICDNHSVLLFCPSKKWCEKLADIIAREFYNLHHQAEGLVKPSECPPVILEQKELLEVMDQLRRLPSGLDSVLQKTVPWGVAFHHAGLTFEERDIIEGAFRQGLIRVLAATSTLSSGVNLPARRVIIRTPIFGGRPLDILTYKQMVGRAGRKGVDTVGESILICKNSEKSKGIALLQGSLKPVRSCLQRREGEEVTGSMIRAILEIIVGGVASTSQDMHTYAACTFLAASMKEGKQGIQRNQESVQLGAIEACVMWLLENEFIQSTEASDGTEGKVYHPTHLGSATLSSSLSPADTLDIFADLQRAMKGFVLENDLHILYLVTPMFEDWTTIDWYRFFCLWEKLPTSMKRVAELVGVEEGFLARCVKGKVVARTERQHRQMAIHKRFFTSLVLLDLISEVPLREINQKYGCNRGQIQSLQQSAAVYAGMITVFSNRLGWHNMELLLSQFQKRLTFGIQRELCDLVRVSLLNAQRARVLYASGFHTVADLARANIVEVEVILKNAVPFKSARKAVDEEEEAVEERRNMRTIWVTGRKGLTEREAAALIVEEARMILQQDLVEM

One may read the microsomal CLint as the rate of metabolic loss divided by the concentration. A low value points to greater metabolic stability. The IC50 is the concentration needed to halve the response being measured. Low values mean inhibition by little substance, high ones a need for much substance. `COc1ccc(F)cc1-c1cnccc1C(=O)Nc1nnc(OCc2ccc(C#N)cc2)s1` came in with a microsomal CLint at 1 μM in data set [1] of 174 µL/min/mg. Further, in data set [2], it took 234 nM to reach half-maximal inhibition (IC50). For the same molecule, in data set [3], the “Time-dependent CYP3A4 inhibition-shift after 30 min with NADPH” value (“Time-dependent CYP3A4 inhibition-shift” below) turned out to be 1x. Further, in data set [4], the fold induction at 24 h is 3.9 and the “PXR activation (% Max activity)” value is recorded as 17%.
For `COc1ccccc1-c1cnccc1C(=O)Nc1nnc(OCc2ccc(Cl)cc2)s1` the same measures were 262 µL/min/mg, 1170 nM, greater than 6.5x, 8.8 and 46.0%.
Regarding `COc1ccccc1-c1cnccc1C(=O)Nc1nnc(OCc2ccc(C#N)cc2)s1`, the microsomal CLint at 1 μM in data set [1] was 234 µL/min/mg. The IC50 in data set [2] turned out to be 450 nM. Moreover, the “Time-dependent CYP3A4 inhibition-shift” value in data set [3] came out at 3.6x. Further, in data set [4], the fold induction at 24 h worked out at 7.9 and the “PXR activation (% Max activity)” value is listed as 36.0%.
In the same order, the values of `C=C(C1=CN=CCC1C(=O)Nc1nnc(CCC2CC2)s1)/C(=C\N=C\Cl)OC` (centres unmarked) are less than 7.7 µL/min/mg, greater than 30000 nM, 1x, 1.8 and 5.0%.
For the molecule `COc1ccccc1-c1cnccc1C(=O)Nc1nnc(C#Cc2ccc(Cl)cc2)s1` [Compound 474], the microsomal CLint at 1 μM in data set [1] was determined as 22.5 µL/min/mg. The same molecule showed an IC50 in data set [2] of 1940 nM. The IC50 in data set [5] was 7.6 nM. Besides, the “Time-dependent CYP3A4 inhibition-shift” value in data set [3] is given as 1x. In data set [4], the fold induction at 24 h is 1.5 and the “PXR activation (% Max activity)” value turned out to be 3.0%.
